Laboratory results taken from patent publication US20190071571A1, “COLORING COMPOSITION, DICHROIC DYE COMPOUND, LIGHT ABSORPTION ANISOTROPIC FILM, LAMINATE, AND IMAGE DISPLAY DEVICE” (FUJIFILM Corporation, priority 2016, published 2019).

Assay: Solubility of dichroic dye compound in cyclopentanone (absorbance method)
Format: physicochemical
Settings: for Solubility (evaluation grade) / Solubility (wt %): in cyclopentanone; for solubility (in words): solubility to solvent, comparison between examples
Description: The solubilities of the dichroic dye compounds D1 and D4 to D24 used in the examples and the comparative examples were measured as follows.
0.1 g of each dichroic dye compound was added to 2 g of cyclopentanone, and dissolved with ultrasonic waves. Then, 0.2 g of the solution portion was weighed and diluted with 45 g of cyclopentanone. The absorption spectrum of the cyclopentanone solution was measured to obtain an absorbance A (for solubility measurement).
Separately, 0.1 mg of each dichroic dye compound was completely dissolved in 100 g of cyclopentanone, and the absorption spectrum was measured to obtain an absorbance B (having a known concentration).
From data of the obtained two absorbances, the solubility was calculated by the following formula.
The evaluation standards are as follows.
A: The solubility is 2.5 mass % or greater.
B: The solubility is 1.0 mass % or greater and ess than 2.5 mass %.
C: The solubility is less than 1.0 mass %.

Row | Solubility (wt %) | solubility (in words) | Structure (SMILES) | Solubility (evaluation grade)
1 | 18 wt % | more excellent solubility | C=CC(=O)OCCCCOc1ccc(/N=N/c2ccc(/N=N/c3ccc(OCCCCOC(=O)C=C)cc3C)cc2)cc1 [D6] | A (The solubility is 2.5 mass % or greater.)
2 | 4.8 wt % | more excellent solubility | C=CC(=O)OCCCCOc1ccc(/N=N/c2ccc(/N=N/c3ccc(/N=N/c4ccc(OCCCCOC(=O)C=C)cc4)cc3OCCOCCOCCOC)cc2)cc1 [D8] | A (The solubility is 2.5 mass % or greater.)
3 | 4.3 wt % | – | C=CC(=O)OCCOc1ccc(/N=N/c2ccc(/N=N/c3ccc(/N=N/c4ccc(OCCOC(=O)C=C)cc4)cc3C)cc2)cc1 [D9] | A (The solubility is 2.5 mass % or greater.)
4 | 2.8 wt % | – | C=CC(=O)OCCCCOc1ccc(/N=N/c2ccc(/N=N/c3ccc(/N=N/c4ccc(OCCCCCCC)cc4)cc3)c(C)c2)cc1 [D10] | A (The solubility is 2.5 mass % or greater.)
5 | 3.3 wt % | – | Cc1cc(/N=N/c2ccc(OCCCCOCC3(C)COC3)cc2)ccc1/N=N/c1ccc(/N=N/c2ccc(OCCCCOCC3(C)COC3)cc2)cc1 [D11] | A (The solubility is 2.5 mass % or greater.)
6 | 1.5 wt % | – | C=CC(=O)OCCCCOc1ccc(/N=N/c2ccc(/N=N/c3ccc(/N=N/c4ccc(OCCCCOC(=O)C=C)cc4)c4ccccc34)cc2)cc1 [D13, reference compound] | B (The solubility is 1.0 mass % or greater and ess than 2.5 mass %.)
7 | 3.1 wt % | – | C=CC(=O)OCCCCOc1ccc(N=Nc2ccc(N=Nc3ccc(N=Nc4ccc(OCCCCOC(=O)C=C)cc4)c(OC)c3)c(OC)c2)cc1 [D14] | A (The solubility is 2.5 mass % or greater.)
8 | 5.0 wt % | more excellent solubility | C=CC(=O)OCCCCOc1ccc(N=Nc2ccc(N=Nc3ccc(N=Nc4ccc(OCCCCOC(=O)C=C)cc4OC)cc3C)cc2)c(OC)c1 [D16] | A (The solubility is 2.5 mass % or greater.)
9 | 2.1 wt % | – | C=CC(=O)OCCCCOc1ccc(N=Nc2ccc(N=Nc3ccc(N=Nc4ccc(N=Nc5ccc(OCCCCOC(=O)C=C)cc5)c(OC)c4)c(OC)c3)cc2)cc1 [D18] | B (The solubility is 1.0 mass % or greater and ess than 2.5 mass %.)
10 | >5 wt % | – | C=CC(=O)OCCCCOc1ccc(N=Nc2ccc(N=Nc3ccc(N=Nc4ccc(OCCCCOC(=O)C=C)cc4OCCOC)cc3C)cc2)c(OCCOC)c1 [D20] | A (The solubility is 2.5 mass % or greater.)
11 | 0.3 wt % | – | C=CC(=O)OCCCCOc1ccc(N=Nc2ccc(N=Nc3ccc(N=Nc4ccc(N=Nc5ccc(OCCCCOC(=O)C=C)cc5)cc4)cc3)cc2)cc1 [D22, reference compound] | C (The solubility is less than 1.0 mass %.)
12 | 1.2 wt % | – | C=CC(=O)OCCCCOc1ccc(N=Nc2ccc(N=Nc3ccc(N=Nc4ccc(N=Nc5ccc(N=Nc6ccc(OCCCCOC(=O)C=C)c(C(F)(F)F)c6)c(C)c5)cc4)c(C)c3)cc2)cc1C(F)(F)F [D23] | B (The solubility is 1.0 mass % or greater and ess than 2.5 mass %.)

More lines, now with the values behind:

Row | Structure (SMILES) | Solubility (wt %) | solubility (in words) | Solubility (evaluation grade)
13 | C=CC(=O)OCCCCOc1ccc(/N=N/c2ccc(/N=N/c3ccc(/N=N/c4ccc(OCCCCOC(=O)C=C)cc4)cc3C)cc2)cc1 [D1] | 4.5 wt % | more excellent solubility | A (The solubility is 2.5 mass % or greater.)
14 | C=CC(=O)OCCCCOc1ccc(/N=N/c2ccc(/N=N/c3ccc(OCCCCOC(=O)C=C)cc3)cc2)cc1 [D4] | 5.7 wt % | – | A (The solubility is 2.5 mass % or greater.)
15 | C=CC(=O)OCCCCOc1ccc(/N=N/c2ccc(/N=N/c3ccc(OCCCCOC(=O)C=C)c(C)c3)cc2)cc1 [D5] | 6.8 wt % | – | A (The solubility is 2.5 mass % or greater.)
16 | C=CC(=O)OCCCCOc1ccc(/N=N/c2ccc(/N=N/c3ccc(OCCCCOC(=O)C=C)c(C(F)(F)F)c3)cc2)cc1 [D7] | 42 wt % | more excellent solubility | A (The solubility is 2.5 mass % or greater.)
17 | C=CC(=O)OCCCCOc1ccc(/N=N/c2ccc(/N=N/c3ccc(/N=N/c4ccc(OCCCCOC(=O)C=C)cc4)cc3)cc2)cc1 [D12, reference compound] | 0.8 wt % | the solubility to a solvent deteriorates | C (The solubility is less than 1.0 mass %.)
18 | C=CC(=O)OCCCCOc1ccc(N=Nc2ccc(N=Nc3ccc(N=Nc4ccc(OCCCCOC(=O)C=C)c(OC)c4)cc3C)cc2)cc1OC [D15] | 4.3 wt % | – | A (The solubility is 2.5 mass % or greater.)
19 | C=CC(=O)OCCCCOc1ccc(N=Nc2ccc(N=Nc3ccc(N=Nc4ccc(OCCCCOC(=O)C=C)cc4)c(C)c3)c(OC)c2)cc1 [D17] | 3.2 wt % | – | A (The solubility is 2.5 mass % or greater.)
20 | C=CC(=O)OCCCCOc1ccc(N=Nc2ccc(N=Nc3ccc(N=Nc4ccc(OCCCCOC(=O)C=C)c(C(F)(F)F)c4)cc3)cc2)cc1 [D19] | >5 wt % | – | A (The solubility is 2.5 mass % or greater.)
21 | C=CC(=O)OCCCCOc1ccc(N=Nc2ccc(N=Nc3ccc(N=Nc4ccc(OCCCCOC(=O)C=C)cc4O)cc3)c(C)c2)cc1 [D21] | 1.5 wt % | – | B (The solubility is 1.0 mass % or greater and ess than 2.5 mass %.)
22 | CCCCc1ccc(N=Nc2ccc(N=Nc3c(C)cc(N=Nc4cc(C)c(N=Nc5ccc(N=Nc6ccc(CCCC)cc6)cc5)c(C)c4)cc3C)cc2)cc1 [D24, reference compound] | <0.1 wt % | – | C (The solubility is less than 1.0 mass %.)
